Data published in ChEMBL document CHEMBL3085704, “Methyl-thiazoles: a novel mode of inhibition with the potential to develop novel inhibitors targeting InhA in Mycobacterium tuberculosis” (J Med Chem, 2013).

Key:
Format in all cases: functional
[1] = test system: Mycobacterium tuberculosis; assay: Antitubercular activity against Mycobacterium tuberculosis H37Rv expressing inhA M103I mutant assessed as parasite growth inhibition after 7 days by Alamar Blue assay
[2] = test system: Mycobacterium tuberculosis; assay: Antitubercular activity against Mycobacterium tuberculosis H37Rv expressing inhA G96V mutant assessed as parasite growth inhibition after 7 days by Alamar Blue assay
[3] = test system: Mycobacterium tuberculosis; assay: Antitubercular activity against Mycobacterium tuberculosis H37Rv expressing inhA M103L mutant assessed as parasite growth inhibition after 7 days by Alamar Blue assay

Compound	MIC [1]	MIC [2]	MIC [3]
COc1c(N2C[C@@H]3CCCN[C@@H]3C2)c(F)cc2c(=O)c(C(=O)O)cn(C3CC3)c12 [MOXIFLOXACIN]	0.12 µg/mL	0.12 µg/mL	0.12 µg/mL
Cc1csc([C@](C)(O)c2nnc(Nc3ccn(Cc4c(F)cccc4F)n3)s2)n1	>25 µM	>25 µM	>25 µM
CO[C@H]1/C=C/O[C@@]2(C)Oc3c(C)c(O)c4c(O)c(c(/C=N/N5CCN(C)CC5)c(O)c4c3C2=O)NC(=O)/C(C)=C\C=C\[C@H](C)[C@H](O)[C@@H](C)[C@@H](O)[C@@H](C)[C@H](OC(C)=O)[C@@H]1C [RIFAMPIN]	0.007 µg/mL	0.01 µg/mL	0.007 µg/mL
NNC(=O)c1ccncc1 [ISONIAZID]	0.06 µg/mL	0.06 µg/mL	0.03 µg/mL
Cc1csc(C(C)(O)c2nnc(Nc3ncn(Cc4c(F)cccc4F)n3)s2)n1 (racemic)	>25 µM	>25 µM	>25 µM
